Drawing on patent US7795278B2 (sanofi-aventis Deutschland GmbH, priority 2004, dated 2010), this text covers Ki, IC50 and EC50 for seven molecules.

For experiment [1], the target named is purified human PARP-1 enzyme (Homo sapiens, UniProt P09874). Briefly: Enzyme inhibition assay with various substrate concentrations (apparent Ki). Type of experiment: biochemical. The settings on record: various concentrations of tritium-labeled NAD, room temperature, 10 min; Michaelis-Menten, purely competitive inhibition assumed; read-out: app. Ki. The procedure: Enzyme Inhibition Assay with Various Substrate Concentrations
Apparent Ki values of the test substances are determined in an enzymatic assay using the purified human PARP-1 enzyme. Specifically, various concentrations of the tritium-labeled substrate NAD are incubated with an identical concentration of the test substance in 50 μl of reaction solution, which contains 50 mM tris, 5 mM MgCl2, 1 mM DTT, 0.1 mg/ml DNA, 0.1 mg/ml histones, 2 μg/ml recombinantly expressed human PARP-1 enzyme, pH=8.0, at room temperature for 10 min. The reaction is stopped by adding 150 μl of 20% trichloroacetic acid, and the radiolabeled protein constituents are precipitated. After incubation on ice for 10 minutes, the labeled, insoluble constituents are separated off through a glass fiber filter and, after washing with 20% trichloroacetic acid three times, the radioactivity incorporated by the PARP-1 enzyme is measured by radioluminescence. Evaluation of the incorporation rates determined in this way as a function of the concentration of the substrate NAD affords the apparent Ki values according to Michaelis-Menten kinetics, assuming that the mechanism of inhibition is purely competitive.
(§1) EC-50 values and apparent Ki values are determined in this way for all the following selected compounds: […]

In experiment [2] the target is recombinantly expressed human PARP-1 enzyme (Homo sapiens, UniProt P09874). Briefly: PARP enzyme assay (half-maximum inhibitor concentration). The format is biochemical. As to conditions: DNA-activated PARP-1, 200 μM NAD, tritium-labeled NAD incorporation, room temperature, 1 hour, pH 8.0. The procedure:
Pharmacological Investigations PARP Enzyme Assay
The half-maximum inhibitor concentration is determined by incubating the substances to be tested with the DNA-activated, recombinantly expressed and purified PARP-1 enzyme. Specifically, various concentrations of the test substance are incubated in 50 μl of reaction solution, which contains 50 mM Tris, 5 mM MgCl2, 1 mM DTT, 200 μM NAD, 0.1 mCi/ml tritium-labeled NAD, 0.1 mg/ml DNA, 0.1 mg/ml histones, 2 μg/ml recombinantly expressed human PARP-1 enzyme, pH=8.0, at room temperature for 1 hour. The reaction is stopped by adding 150 μl of 20% trichloroacetic acid, and the radiolabeled protein constituents are precipitated. After incubation on ice for 10 minutes, the labeled, insoluble constituents are separated off through a glass fiber filter and, after washing with 20% trichloroacetic acid three times, the radioactivity incorporated by the PARP-1 enzyme is measured by radioluminescence.
IC-50 values were determined in this way for the following compounds: […]

For experiment [3], the system named is rat cardiomyocytes (H9c2 cell line). Briefly: ATP consumption assay in cardiomyoblasts. The format is cell-based. As to conditions: H9c2 cells, 15 min preincubation, 300 μM H2O2 for 1 hour, cellular ATP content by luciferase reaction. The method, then: ATP Consumption Assay in Cardiomyoblasts
The activity of the test substances in cells is ascertained by means of an ATP consumption assay. For this purpose, rat cardiomyocytes (H9c2 cell line) are seeded in a 96-well plate (40 000 cells per well, RPMI1640; 10% FCS) and kept at 37° C. and 5% CO2 for 16 hours. The cells are washed with PBS and incubated under identical conditions with various concentrations of the test substance in medium for 15 min. After addition of 300 μM H2O2, the cells are kept at 37° C., 5% CO2 for a further hour and lysed, and the cellular content of ATP is determined by means of luciferase reaction. The half-maximum effective concentration of the substances (EC50) is determined as the concentration at which the ATP content of the cells has reached half the value which can be measured with a maximally effective concentration of the same substance.
as §1

Chain of purified human PARP-1 enzyme (P09874 whole entry): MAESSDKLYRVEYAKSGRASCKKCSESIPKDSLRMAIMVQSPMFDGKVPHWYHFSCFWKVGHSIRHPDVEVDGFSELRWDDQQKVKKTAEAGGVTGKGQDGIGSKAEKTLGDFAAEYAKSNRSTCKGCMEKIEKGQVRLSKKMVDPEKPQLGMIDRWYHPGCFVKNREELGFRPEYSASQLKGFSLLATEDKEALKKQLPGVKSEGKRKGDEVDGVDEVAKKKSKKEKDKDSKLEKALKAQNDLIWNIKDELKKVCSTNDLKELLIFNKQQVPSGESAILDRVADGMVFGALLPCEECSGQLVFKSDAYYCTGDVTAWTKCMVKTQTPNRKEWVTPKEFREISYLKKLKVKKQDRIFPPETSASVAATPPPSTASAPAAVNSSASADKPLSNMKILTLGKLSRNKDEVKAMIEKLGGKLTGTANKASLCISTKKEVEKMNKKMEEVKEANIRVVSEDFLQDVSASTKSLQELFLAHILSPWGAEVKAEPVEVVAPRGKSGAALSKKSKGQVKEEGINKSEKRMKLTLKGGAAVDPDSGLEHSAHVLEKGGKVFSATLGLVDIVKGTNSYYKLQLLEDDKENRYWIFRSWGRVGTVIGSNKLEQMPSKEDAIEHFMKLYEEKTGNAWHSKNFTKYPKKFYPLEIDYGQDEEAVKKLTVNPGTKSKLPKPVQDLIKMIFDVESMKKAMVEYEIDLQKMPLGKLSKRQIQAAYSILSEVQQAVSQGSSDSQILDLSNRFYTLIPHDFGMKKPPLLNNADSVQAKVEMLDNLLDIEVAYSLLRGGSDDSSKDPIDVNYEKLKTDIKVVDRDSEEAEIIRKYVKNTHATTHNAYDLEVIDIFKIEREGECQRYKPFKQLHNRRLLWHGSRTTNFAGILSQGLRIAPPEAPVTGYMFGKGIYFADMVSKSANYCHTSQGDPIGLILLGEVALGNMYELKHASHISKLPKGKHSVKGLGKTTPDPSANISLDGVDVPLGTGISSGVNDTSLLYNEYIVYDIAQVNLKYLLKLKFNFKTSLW
Chain of recombinantly expressed human PARP-1 enzyme (P09874 whole entry): as above

`Cc1[nH]c(=O)c2c(c1-c1ccc(CO)o1)CCCC2` [Example 9, 4-(5-Hydroxymethylfuran-2-yl)-3-methyl-5,6,7,8-tetrahydro-2H-isoquinolin-1-one]: the Ki in experiment [1] is 16 nM. The IC50 (commonly the concentration that gives 50% inhibition) in experiment [2] was determined as 280 nM. Also, the EC50 (commonly the concentration needed to bring the measured effect to its halfway point) in experiment [3] worked out at 1570 nM.
In the case of `CC(=O)c1cccc(Nc2c(C)[nH]c(=O)c3c2CCCC3)c1` [Example 16, 4-(3-acetylphenylamino)-3-methyl-5,6,7,8-tetrahydro-2H-isoquinolin-1-one], in experiment [1], the Ki is 54 nM. Also, the IC50 in experiment [2] came to 90 nM. This molecule also registered an EC50 in experiment [3] of 200 nM.
Take `O=C(NCCN1CCCC1)c1cccc(Nc2c[nH]c(=O)c3c2CCCC3)c1` [Example 24, 3-(1-Oxo-1,2,5,6,7,8-hexahydroisoquinolin-4-ylamino)-N-(2-pyrrolidin-1-ylethyl)benzamide]: the Ki in experiment [1] was determined as 31 nM. In experiment [2], the IC50 stood at 220 nM.
In the case of `Cc1[nH]c(=O)c2c(c1-c1ccc(CN3CCCC3)o1)CCCC2` [Example 54, 3-methyl-4-(5-pyrrolidin-1-ylmethylfuran-2-yl)-5,6,7,8-tetrahydro-2H-isoquinolin-1-one], the Ki in experiment [1] came to 15 nM. Moreover, the IC50 in experiment [2] worked out at 300 nM. Also, in experiment [3], a half-maximal response (EC50) required 330 nM.
The corresponding values for `O=c1[nH]cc(-c2ccc(CNCC(O)c3ccccc3)o2)c2c1CCCC2` (stereo not drawn) [Example 72, 4-{5-[(2-hydroxy-2-phenyl-ethylamino)methyl]furan-2-yl}-5,6,7,8-tetrahydro-2H-isoquinolin-1-one] are 24 nM, 110 nM and 380 nM.
With `CCCCNCc1ccc(-c2c[nH]c(=O)c3c2CCCC3)o1` [Example 78, 4-(5-butylaminomethylfuran-2-yl)-5,6,7,8-tetrahydro-2H-isoquinolin-1-one], in experiment [1], the Ki amounted to 40 nM. Also, the IC50 in experiment [2] turned out to be 250 nM. The same molecule had a 50% effective concentration (EC50) in experiment [3] of 520 nM.
On to `CC(=O)Nc1ccc(S(=O)(=O)NCc2ccc(-c3c[nH]c(=O)c4c3CCCC4)o2)cc1` [Example 87, N-(4-{[5-(1-oxo-1,2,5,6,7,8-hexahydroisoquinolin-4-yl)furan-2-ylmethyl]sulfamoyl}phenyl)acetamide], for which, in experiment [2], the IC50 is 3770 nM.
